In patent US12702715B2, “Targeted RNA degradation allows precision repurposing of protein-targeted small molecule medicines to RNA” (University of Florida Research Foundation, Incorporated, priority 2020, dated 2026):

Columns and labels:
[1] = system: pre-miR-21; assay: Cellular Chem-CLIP and C-Chem-CLIP to study occupancy of pre-miR-21; assay type: cell-based, human
Experimental: Cellular Chem-CLIP and C-Chem-CLIP to Study Occupancy of pre-miR-2L MDA-MB-231 cells in 100 mm dishes (~90% confluency) were treated with 4 or 5 for 6 h at 37° C. Then the cells were washed with 1×DPBS and cross-linked under 365 nm light for 10 min in ice cold 1×DPBS. The cells were harvested by scraping and pelleted by centrifugation. Total RNA was extracted by using the miRNeasy mini kit (Qiagen) per the manufacturer's protocol. Approximately 50 μg of total RNA was clicked to disulfide biotin azide as described in the “In Vitro Chem-CLIP and Competitive Chem-CLIP (C-Chem-CLIP)” section. Streptavidin beads (10 μL) were added, and the samples were incubated, with shaking, for 2 h at 37° C. The beads were then washed with 1× Wash Buffer (10 mM Tris-HCl, pH 7.0, 4 M NaCl, 1 mM EDTA) three times and then once with nanopure water. Bound RNAs were eluted from the beads by incubating with 200 μL of 1:1 TCEP (200 mM) pre-reduced with 600 mM of K2CO3 for 30 min at 37° C. The reaction was quenched by treatment with an equal volume of 400 mM of iodoacetamide for 30 min at room temperature. The supernatant was collected, and the beads were washed once with nanopure water: the water was added to the eluant. The combined eluant was cleaned up using RNAClean XP beads according to the manufacturer's protocol. The obtained RNA was then subjected to RT-qPCR. Enrichment of pre-miR-21 was calculated as previously described^6. Cellular C-Chem-CLIP was completed by pre-treating with 1 (1 or 5 μM) or 3 (1 or 5 μM) for 6 h, followed by dosing with 4 (5 μM) for 6 h. Sample preparation and data analysis were completed as described above for cellular Chem-CLIP studies.

[2] = target: T1, FLT3 (Homo sapiens, UniProt P36888); assay: Cellular Chem-CLIP/C-Chem-CLIP to study occupancy of an RTK; assay type: cell-based
T1 construct: endogenous in cells; host or cells: MDA-MB-231
T1 sequence (P36888 27-993): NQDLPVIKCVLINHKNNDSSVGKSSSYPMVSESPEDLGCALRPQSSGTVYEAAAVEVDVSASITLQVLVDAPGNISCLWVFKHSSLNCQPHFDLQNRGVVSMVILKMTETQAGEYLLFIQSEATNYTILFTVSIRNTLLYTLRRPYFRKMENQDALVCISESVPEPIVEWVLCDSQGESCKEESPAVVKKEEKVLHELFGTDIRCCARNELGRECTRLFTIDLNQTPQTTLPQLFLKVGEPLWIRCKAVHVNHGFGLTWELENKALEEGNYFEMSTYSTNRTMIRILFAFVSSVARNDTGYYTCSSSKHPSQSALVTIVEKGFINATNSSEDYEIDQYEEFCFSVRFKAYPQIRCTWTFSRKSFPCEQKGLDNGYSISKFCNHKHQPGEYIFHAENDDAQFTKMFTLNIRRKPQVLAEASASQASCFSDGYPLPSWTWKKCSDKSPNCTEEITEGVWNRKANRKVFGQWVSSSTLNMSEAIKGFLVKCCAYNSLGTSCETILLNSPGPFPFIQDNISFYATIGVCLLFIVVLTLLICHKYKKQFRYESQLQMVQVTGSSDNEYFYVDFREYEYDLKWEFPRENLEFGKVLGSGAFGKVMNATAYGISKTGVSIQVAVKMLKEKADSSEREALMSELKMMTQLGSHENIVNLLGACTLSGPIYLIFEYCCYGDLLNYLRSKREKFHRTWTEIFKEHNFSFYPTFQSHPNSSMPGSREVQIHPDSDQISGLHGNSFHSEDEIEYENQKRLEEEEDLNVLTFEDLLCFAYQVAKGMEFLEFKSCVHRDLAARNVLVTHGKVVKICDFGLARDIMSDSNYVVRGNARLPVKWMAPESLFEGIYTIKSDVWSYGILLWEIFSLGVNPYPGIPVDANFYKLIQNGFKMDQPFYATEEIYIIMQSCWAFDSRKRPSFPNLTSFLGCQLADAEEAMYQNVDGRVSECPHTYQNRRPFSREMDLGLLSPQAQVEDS
Experimental: Cellular Chem-CLIP/C-Chem-CLIP to Study Occupancy of an RTK. Compound treatment and isolation of cells was completed as described for cellular occupancy studies of pre-miR-21. Total protein was extracted and concentration determined as described in the “Western Blotting” section. Approximately 1 mg of total protein was used for following pull-down experiments, using a protocol adapted from a previously published method 8. Protein cross-linked to the probe were clicked to disulfide biotin azide as described above except the amount of each reagents was doubled (20 μL/sample). Then, to the mixture was added ice-cold, 4:1 mixture of methanol/chloroform (2.5 mL) followed by 1 mL of ice-cold 1×DPBS. The mixture was centrifuged at 5000×g for 10 min at 4° C. to fractionate a protein interphase between organic and aqueous layers. […] The washed protein mixture was centrifuged at 5000×g for 10 min at 4° C. to pellet the protein. The pellet was dissolved in H2O, and to this solution was added 20 μLL streptavidin beads for 30 min at room temperature. The solution was removed, and the beads were washed once with 0.2% SDS in 1×DPBS, twice with detergent-free 1×DPBS and twice with nanopure water. After these washing steps, protein was cleaved as described above. The supernatant was collected, and protein concentration was determined with Pierce Micro BCA Protein Assay kit. […] Sample preparation was completed as described above for cellular Chem-CLIP studies. Western blotting was performed on total protein (10 μg) before or after pull-down, indicated as “Input” or “Output”, as described in Western Blotting.

In the case of `CN1CCN(c2ccc3nc(-c4c(N)c5c(F)cccc5[nH]c4=O)[nH]c3c2)CC1` [Compound 1, Dovitinib, reference compound], the “competition of pull-down of pre-miR-21 with 4” value ([1]; increasing concentrations, 4 constant) is reported as “similarly diminished”.
For `CCOC(=O)C1=C(Nc2ccccc2)S/C(=C\c2ccc(OCCOCCOCCOCCNC(=O)NCCN3CCN(c4ccc5[nH]c(-c6c(N)c7c(F)cccc7[nH]c6=O)nc5c4)CC3)c(O)c2)C1=O` [Compound 2, Ribotac-Dovitinib], the “fold decrease / difference in cellular protein occupancy versus 1” value [2] was 100 fold, the “competition of FLT3 enrichment by probe 4” value ([2]; 0.01-10 μM pre-treatment) was “competed off” and the IC50 ([2]; C-Chem-CLIP, MDA-MB-231, read-out: IC50 for inhibition of the Chem-CLIP probe binding to FLT3) was 10 µM. For the same compound, the “concentration competing off probe 4 from FLT3 to the same extent” value ([2]; probe 4 1 μM) was 10 µM.
With `C#CCCC1(CCC(=O)NCCN2CCN(c3ccc4[nH]c(-c5c(N)c6c(F)cccc6[nH]c5=O)nc4c3)CC2)N=N1` [Compound 4] the “enrichment of FLT3 by probe” value ([2]; MDA-MB-231) was “enriched” and the “reaction with / pull-down of pre-miR-21 in cells” value ([1]; MDA-MB-231) was “reacted with pre-miR-21”.
